These results are taken from PMC2409900 (British Journal of Cancer, 2004).

Several values for one entry are separate records, joined by “and”; a condition that tells them apart may be missing. Identical values can stand only once. Bounds are passed on as bounds.

The test system of one series is rat RBCs. As to the kind of experiment: Ex vivo uptake of 667 COUMATE / 667 COUMARIN by RBCs in whole blood. It is filed as in vitro ADME. The procedure: Whole blood was removed from female Wistar rats, pooled, centrifuged (2800 g, 4°C, 15 min) and separated into RBCs and plasma. […] 667 COUMATE was also incubated with plasma only. Duplicate samples were maintained at 37°C for 0.5, 1, 3 and 24 h on rollers. Whole blood was acidified by addition of 1 M (pH 3) citrate buffer (9 : 1, v v^−1). […] Plasma was separated from other blood constituents by centrifugation (2800 g, 4°C, 15 min) and the radioactivity was counted.
(§1) The coefficients of variation (interday and intraday) were <10%.

In another series the test system is STS. Details: method as in Ireson et al, 2003. The conditions noted are these: ref Ireson et al, 2003; cited from earlier work.
A short description of series [1]: Pharmacokinetic study: plasma levels after single i.v. or p.o. dose. The conditions noted are these: for half-life: t1/2β. As for the experimental part:
Female Wistar (155–165 g) rats were purchased from Charles River UK Ltd (Margate, Kent, UK) and housed in a dedicated animal facility. Rats received RM1 rodent maintenance diet (SDS, Kent, UK), water ad libitum and were maintained in positive pressure isolators under a 12 h light–dark cycle. These experiments were approved by the Imperial College Ethical Review Committee and met the standards required by the UKCCCR guidelines ([Workman et al, 1998]). […] Three rats were used for each time point. Rats were subjected to terminal anaesthesia (halothane) and blood was removed by cardiac puncture at 2.5, 5, 15, 30 and 45 min and 1, 3, 8, 16 and 24 h after i.v. administration. […] Plasma and RBCs were prepared from whole blood by centrifugation (2800 g, 4°C, 15 min). […] 7-Hydroxycoumarin (3 μg ml^−1) was used as an internal standard. The organic phase was decanted to a fresh tube and evaporated to dryness under a stream of air at room temperature. […] Briefly, RBCs were mixed with blank plasma (1 : 1, v v^−1) and mixed by inversion in order to reconstitute ‘whole blood’. 7-Hydroxycoumarin (3 μg ml^−1) was added to the whole blood (500 μl). […] Samples were thawed, vortexed for a further 5 min, centrifuged (15 000 g, 15 min) and the supernatant was removed and filtered ([…], acrodisc CR PTFE). The diethyl ether was removed under a stream of air. […] The residues were stored at −20°C in preparation for HPLC analysis.
Pharmacokinetic parameters were calculated using WinNonlin software (Pharsight Corporation, Mountview, CA, USA). The area under the curve (AUC) was calculated using the linear trapezoidal method with extrapolation of the terminal phase to infinity. Other parameters calculated were as follows: elimination rate constant (β); total body clearance (Cl)=dose/AUC; volume of distribution (Vd)=Cl/β; elimination half-life (t1/2β)=0.693/β; bioavailability (%F)=(AUCoral/AUCi.v.) × 100.

A short description of series [2]: Stability of 667 COUMATE in vehicle. It is filed as physicochemical. The conditions noted are these: HPLC.
Series [3] relates to E1S-stimulated nitrosomethylurea-induced mammary tumours. The conditions noted are these: cited from earlier work.
Series [4] can be described thus: Ex vivo stability in plasma and whole blood (667 COUMATE/667 COUMARIN ratio). The class given is in vitro ADME, rat. The procedure: Whole blood was removed from female Wistar rats, pooled, centrifuged (2800 g, 4°C, 15 min) and separated into RBCs and plasma. […] 667 COUMATE was also incubated with plasma only. […] Whole blood was acidified by addition of 1 M (pH 3) citrate buffer (9 : 1, v v^−1). […] Plasma was separated from other blood constituents by centrifugation (2800 g, 4°C, 15 min) and the radioactivity was counted.
as §1

On the set-up of series [5]: method as in Ireson et al, 2003. The conditions noted are these: by 4 h; ref Ireson et al, 2003; cited from earlier work.
Series [6] in a line: In vivo uptake into RBCs after single p.o. or i.v. dose. The conditions noted are these: female, Wistar, 10 mg kg^−1, rat.
Source text: Three rats were used for each time point.
as §1

The next series relates to rat liver STS. The conditions noted are these: cited from earlier work.
Where [7] appears, read: female, Wistar, rat, in vivo, iv, 10 mg/kg.
The mark [8] stands for this setting: female, Wistar, rat, in vivo, po, 10 mg/kg.

Turning to `O=c1oc2cc(O)ccc2c2c1CCCCC2` [667 COUMARIN, 3-Hydroxy-6-oxo-8,9,10,11-tetrahydro-7H-cyclohepta-[c] [1] benzopyran], the “effect of acetazolamide preincubation on uptake into RBCs” value with rat RBCs (whole rat blood preincubated with acetazolamide (100 μM)) is listed as “did not affect this uptake”. Also, the “uptake into RBCs” value with rat RBCs (whole rat blood, 667 COUMARIN 10 μg ml^−1, no acetazolamide) turned out to be 50%. Besides, in the series on STS, the STS inhibitory activity result is reported as “devoid of any STS inhibitory activity”. Besides, the “formation as metabolite of 667 COUMATE in vivo” value in series [1] (rat plasma after i.v. or p.o. 667 COUMATE) is “only a minor metabolic product”. The “level of degradation product 667 COUMARIN in vehicle” value in [2] (667 COUMATE in vehicle on ice for up to 6 h) is “below the limit of detection”.
In general, bioavailability refers to the share of a dose that reaches the circulation, judged against a reference dose that is usually intravenous. One may read the AUC as concentration integrated over time. By Cmax is commonly meant the maximum level reached in the sampled fluid or tissue. What is called half-life is the time needed for the level to fall by half in the phase considered. A high value points to slow loss. For the compound `NS(=O)(=O)Oc1ccc2c3c(c(=O)oc2c1)CCCCC3` [667 COUMATE, 6-oxo-8,9,10,11-tetrahydro-7H-cyclohepta-[c] [1] benzopyran-3-O-sulphamate], in series [3] (nitrosomethylurea-induced mammary tumours in rats, ref Purohit et al, 2000), the “inhibition of STS activity in mammary tumours” value was “almost completely inhibit STS activity”. For the same compound, the “growth of E1S-stimulated tumours” value in [3] (nitrosomethylurea-induced rat mammary model, ref Purohit et al, 2000, 2001) is given as “causes a reduction in the growth”. Also, the “parent compound remaining in plasma” value in series [4] (plasma, 3 h incubation) was “below the limit of detection”. In addition, in series [4] (whole blood, after 48 h incubation), the “parent compound remaining in whole blood” value is listed as “could still be detected”. In addition, the “percentage of agent retained by the RBCs” value in the series with rat RBCs (24 h after addition to whole rat blood) is reported as 48%. Besides, the “percentage of agent taken up by RBCs (two independent analytical methods)” value in the series with rat RBCs (added to rat whole blood ex vivo) is recorded as “more than 70%”. The “uptake into RBCs after preincubation with acetazolamide” value with rat RBCs (whole rat blood preincubated 30 min with acetazolamide (100 μM)) amounted to 50%. In addition, the “percentage of agent associated with the RBC fraction” value in the series on rat RBCs (whole rat blood, 30 min incubation, 37°C, 10 μg ml^−1, HPLC) was “more than 80%”. Besides, the Cl is 53.5 ± 2.6 mL/h in series [1] (10 mg kg^−1 bolus i.v., rat, Cl=dose/AUC); 54 mL/h and 54.2 ± 2.4 mL/h in series [1] (10 mg kg^−1 p.o., rat, Cl=dose/AUC). In series [1] (10 mg kg^−1 p.o., rat plasma), this compound had a t1/2β of 1.97 ± 0.3 h. Also, the Vd stood at 0.1532 ± 0.0187 L/kg in series [1] (10 mg kg^−1 p.o., rat, Vd=Cl/β) and 0.0939 ± 0.0029 L/kg in series [1] (setting [7]). Besides, the concentration at 8 h in [1] (female, Wistar, rat, in vivo, 10 mg kg^−1) is greater than 100 ng/mL. The compound further gave a bioavailability in [1] (female, Wistar, rat, in vivo, 10 mg kg^−1, %F (bioavailability), 10 mg kg^−1 p.o. vs i.v., rat, (AUCoral/AUCi.v.) × 100) of 95%. Besides, the AUC in series [1] (setting [7]) was found to be 35800 ± 1300 ng·h/mL; in series [1] (setting [8]), 34400 ± 1100 ng·h/mL. Further, the values for the Cmax in series [1] (setting [7]) and in series [1] (setting [8]) were 22800 ± 600 ng/mL and 11900 ± 400 ng/mL, respectively. Besides, the k el in [1] (setting [7]) is 0.000167 s⁻¹; in series [1] (setting [8]), 8.33e-05 s⁻¹. In addition, the clearance in [1] (female, Wistar, rat, in vivo, iv, 10 mg/kg, Cl, 10 mg kg^−1 bolus i.v., Cl=dose/AUC) is 0.883 mL/min. Besides, the half-life in series [1] (female, Wistar, rat, in vivo, iv, 10 mg/kg, 10 mg kg^−1 bolus i.v., rat plasma) was 1.2 ± 0.1 h; in series [1] (female, Wistar, rat, in vivo, po, 10 mg/kg, 10 mg kg^−1 p.o., rat plasma), 2 h. Also, the “time at which maximum level in plasma was attained” value in series [1] (oral dosing 10 mg kg^−1, rat) is 30 min. Moreover, the “time for which 667 COUMATE could be detected in plasma” value in [1] (single 10 mg kg^−1 i.v. or p.o. dose, rat) is “up to 8 h”. For the same compound, the “percentage of agent removed on incubation with plasma” value in series [5] was 80%. The concentration at 30 min in series [6] (iv, 30 min after i.v. administration) is 19000 ng/mL; in series [6] (po, 30 min after p.o. administration), 12000 ng/mL. Also, the stability in vehicle entry in series [2] (THF : PEG-400 : water 1:6:3, on ice for up to 6 h) is reported as “stable”. Further, the “inhibition of rat liver STS” value with rat liver STS (10 mg kg^−1, ref Purohit et al, 2000, 2001) is on record as 93%. The “duration of STS inhibition in vivo after a single dose” value with rat liver STS (rat, hepatic STS, ref Purohit et al, 2001) is “up to 24 h”.
